Assay results: US6358885B1, “Substituted phenylheterocyclic herbicides” (Mississippi State University, priority 1992, dated 2002)

Columns and labels:
Test in all cases: Test B preemergence/postemergence greenhouse plant response rating 0 to 10
wild oat = format: in vivo, Avena fatua; details: for Plant response rating, Wild oat: 0 to 10 scale
Method in brief: (§1)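 Test chemicals were sprayed onto freshly planted seed and, concurrently, onto young plants between the one and four leaf stage. After a twelve- to sixteen-day greenhouse period, each species was visually compared with untreated controls.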

barnyardgrass = format: in vivo, Echinochloa crus-galli; details: for Plant response rating, Barnyardgrass: 0 to 10 scale
Method in brief: as §1

blackgrass = format: in vivo, Alopecurus myosuroides; details: for Plant response rating, Blackgrass: 0 to 10 scale
Method in brief: as §1

velvetleaf = format: in vivo, Abutilon theophrasti; details: for Plant response rating, Velvetleaf: 0 to 10 scale
Method in brief: as §1

rice = format: in vivo, Oryza sativa; details: for Plant response rating, Rice: 0 to 10 scale
Method in brief: as §1

soybean = format: in vivo, Glycine max; details: for Plant response rating, Soybean: 0 to 10 scale
Method in brief: as §1

sorghum = format: in vivo, Sorghum bicolor; details: for Plant response rating, Sorghum: 0 to 10 scale
Method in brief: as §1

morningglory = format: in vivo, Ipomoea hederacea; details: for Plant response rating, Morningglory: 0 to 10 scale
Method in brief: as §1

cotton = format: in vivo, Gossypium hirsutum; details: for Plant response rating, Cotton: 0 to 10 scale
Method in brief: as §1

barley = format: in vivo, Hordeum vulgare; details: for Plant response rating, Barley: 0 to 10 scale
Method in brief: as §1

chickweed = format: in vivo, Stellaria media; details: for Plant response rating, Chickweed: 0 to 10 scale
Method in brief: as §1

bedstraw = format: in vivo, Galium aparine; details: for Plant response rating, Bedstraw: 0 to 10 scale
Method in brief: as §1

crabgrass = format: in vivo, Digitaria spp.; details: for Plant response rating, Crabgrass: 0 to 10 scale
Method in brief: as §1

cocklebur = format: in vivo, Xanthium pensylvanicum; details: for Plant response rating, Cocklebur: 0 to 10 scale
Method in brief: as §1

wheat = format: in vivo, Triticum aestivum; details: for Plant response rating, Wheat: 0 to 10 scale
Method in brief: as §1

lambsquarters = format: in vivo, Chenopodium album; details: for Plant response rating, Lambsquarter: 0 to 10 scale
Method in brief: as §1

cheatgrass = format: in vivo, Bromus secalinus; details: for Plant response rating, Cheatgrass: 0 to 10 scale
Method in brief: as §1

rape = format: in vivo, Brassica napus; details: for Plant response rating, Rape: 0 to 10 scale
Method in brief: as §1

wild buckwheat = format: in vivo, Polygonum convolvulus; details: for Plant response rating, Wild buckwheat: 0 to 10 scale
Method in brief: as §1

sugar beet = format: in vivo, Beta vulgaris; details: for Plant response rating, Sugar beet: 0 to 10 scale
Method in brief: as §1

corn = format: in vivo, Zea mays; details: for Plant response rating, Corn: 0 to 10 scale
Method in brief: as §1

purple nutsedge = format: in vivo, Cyperus rotundus; details: for Plant response rating, Nutsedge: 0 to 10 scale
Method in brief: as §1

giant foxtail = format: in vivo, Setaria faberii; details: for Plant response rating, Giant foxtail: 0 to 10 scale
Method in brief: as §1

## O=C1COc2cc(F)c(-c3nn4c(c3Br)CCCC4)cc2N1 [Compound 80]
Wild oat; POSTEMERGENCE, Rate 50 g/ha
  Plant response rating, Wild oat: 4
Wild oat; PREEMERGENCE, Rate 50 g/ha
  Plant response rating, Wild oat: 2
Wild oat; PREEMERGENCE, Rate 200 g/ha
  Plant response rating (0 to 10 scale), Wild oat: 7
Wild oat; Rate 200 g/ha, POSTEMERGENCE
  Plant response rating, Wild oat: 5
barnyardgrass; POSTEMERGENCE, Rate 50 g/ha
  Plant response rating, Barnyardgrass: 6
barnyardgrass; PREEMERGENCE, Rate 50 g/ha
  Plant response rating, Barnyardgrass: 0
barnyardgrass; PREEMERGENCE, Rate 200 g/ha
  Plant response rating (0 to 10 scale), Barnyardgrass: 6
barnyardgrass; Rate 200 g/ha, POSTEMERGENCE
  Plant response rating, Barnyardgrass: 8
blackgrass; POSTEMERGENCE, Rate 50 g/ha
  Plant response rating, Blackgrass: 3
blackgrass; PREEMERGENCE, Rate 50 g/ha
  Plant response rating, Blackgrass: 0
blackgrass; PREEMERGENCE, Rate 200 g/ha
  Plant response rating (0 to 10 scale), Blackgrass: 3
blackgrass; Rate 200 g/ha, POSTEMERGENCE
  Plant response rating, Blackgrass: 6
velvetleaf; POSTEMERGENCE, Rate 50 g/ha
  Plant response rating, Velvetleaf: 9
velvetleaf; PREEMERGENCE, Rate 50 g/ha
  Plant response rating, Velvetleaf: 9
velvetleaf; PREEMERGENCE, Rate 200 g/ha
  Plant response rating (0 to 10 scale), Velvetleaf: 10
velvetleaf; Rate 200 g/ha, POSTEMERGENCE
  Plant response rating, Velvetleaf: 10
rice; POSTEMERGENCE, Rate 50 g/ha
  Plant response rating, Rice: 6
rice; PREEMERGENCE, Rate 50 g/ha
  Plant response rating, Rice: 2
rice; PREEMERGENCE, Rate 200 g/ha
  Plant response rating (0 to 10 scale), Rice: 4
rice; Rate 200 g/ha, POSTEMERGENCE
  Plant response rating, Rice: 8
soybean; POSTEMERGENCE, Rate 50 g/ha
  Plant response rating, Soybean: 8
soybean; PREEMERGENCE, Rate 50 g/ha
  Plant response rating, Soybean: 0
soybean; PREEMERGENCE, Rate 200 g/ha
  Plant response rating (0 to 10 scale), Soybean: 0
soybean; Rate 200 g/ha, POSTEMERGENCE
  Plant response rating, Soybean: 9
sorghum; POSTEMERGENCE, Rate 50 g/ha
  Plant response rating, Sorghum: 4
sorghum; PREEMERGENCE, Rate 50 g/ha
  Plant response rating, Sorghum: 0
sorghum; PREEMERGENCE, Rate 200 g/ha
  Plant response rating (0 to 10 scale), Sorghum: 0
sorghum; Rate 200 g/ha, POSTEMERGENCE
  Plant response rating, Sorghum: 6
morningglory; POSTEMERGENCE, Rate 50 g/ha
  Plant response rating, Morningglory: 10
morningglory; PREEMERGENCE, Rate 50 g/ha
  Plant response rating, Morningglory: 5
morningglory; PREEMERGENCE, Rate 200 g/ha
  Plant response rating (0 to 10 scale), Morningglory: 10
morningglory; Rate 200 g/ha, POSTEMERGENCE
  Plant response rating, Morningglory: 10
cotton; POSTEMERGENCE, Rate 50 g/ha
  Plant response rating, Cotton: 10
cotton; PREEMERGENCE, Rate 50 g/ha
  Plant response rating, Cotton: 0
cotton; PREEMERGENCE, Rate 200 g/ha
  Plant response rating (0 to 10 scale), Cotton: 0
cotton; Rate 200 g/ha, POSTEMERGENCE
  Plant response rating, Cotton: 10
barley; POSTEMERGENCE, Rate 50 g/ha
  Plant response rating, Barley: 3
barley; PREEMERGENCE, Rate 50 g/ha
  Plant response rating, Barley: 0
barley; PREEMERGENCE, Rate 200 g/ha
  Plant response rating (0 to 10 scale), Barley: 0
barley; Rate 200 g/ha, POSTEMERGENCE
  Plant response rating, Barley: 4
chickweed; POSTEMERGENCE, Rate 50 g/ha
  Plant response rating, Chickweed: 4
chickweed; PREEMERGENCE, Rate 50 g/ha
  Plant response rating, Chickweed: 0
chickweed; PREEMERGENCE, Rate 200 g/ha
  Plant response rating (0 to 10 scale), Chickweed: 3
chickweed; Rate 200 g/ha, POSTEMERGENCE
  Plant response rating, Chickweed: 7
bedstraw; POSTEMERGENCE, Rate 50 g/ha
  Plant response rating, Bedstraw: 8
bedstraw; PREEMERGENCE, Rate 50 g/ha
  Plant response rating, Bedstraw: 0
bedstraw; PREEMERGENCE, Rate 200 g/ha
  Plant response rating (0 to 10 scale), Bedstraw: 2
bedstraw; Rate 200 g/ha, POSTEMERGENCE
  Plant response rating, Bedstraw: 10
crabgrass; POSTEMERGENCE, Rate 50 g/ha
  Plant response rating, Crabgrass: 4
crabgrass; PREEMERGENCE, Rate 50 g/ha
  Plant response rating, Crabgrass: 0
crabgrass; PREEMERGENCE, Rate 200 g/ha
  Plant response rating (0 to 10 scale), Crabgrass: 3
crabgrass; Rate 200 g/ha, POSTEMERGENCE
  Plant response rating, Crabgrass: 6
cocklebur; POSTEMERGENCE, Rate 50 g/ha
  Plant response rating, Cocklebur: 9
cocklebur; PREEMERGENCE, Rate 50 g/ha
  Plant response rating, Cocklebur: 0
cocklebur; PREEMERGENCE, Rate 200 g/ha
  Plant response rating (0 to 10 scale), Cocklebur: 0
cocklebur; Rate 200 g/ha, POSTEMERGENCE
  Plant response rating, Cocklebur: 10
wheat; POSTEMERGENCE, Rate 50 g/ha
  Plant response rating, Wheat: 4
wheat; PREEMERGENCE, Rate 50 g/ha
  Plant response rating, Wheat: 0
wheat; PREEMERGENCE, Rate 200 g/ha
  Plant response rating (0 to 10 scale), Wheat: 2
wheat; Rate 200 g/ha, POSTEMERGENCE
  Plant response rating, Wheat: 4
lambsquarters; POSTEMERGENCE, Rate 50 g/ha
  Plant response rating, Lambsquarter: 10
lambsquarters; PREEMERGENCE, Rate 50 g/ha
  Plant response rating, Lambsquarter: 10
lambsquarters; PREEMERGENCE, Rate 200 g/ha
  Plant response rating (0 to 10 scale), Lambsquarter: 10
lambsquarters; Rate 200 g/ha, POSTEMERGENCE
  Plant response rating, Lambsquarter: 10
cheatgrass; POSTEMERGENCE, Rate 50 g/ha
  Plant response rating, Cheatgrass: 5
cheatgrass; PREEMERGENCE, Rate 50 g/ha
  Plant response rating, Cheatgrass: 2
cheatgrass; PREEMERGENCE, Rate 200 g/ha
  Plant response rating (0 to 10 scale), Cheatgrass: 3
cheatgrass; Rate 200 g/ha, POSTEMERGENCE
  Plant response rating, Cheatgrass: 6
rape; POSTEMERGENCE, Rate 50 g/ha
  Plant response rating, Rape: 10
rape; PREEMERGENCE, Rate 50 g/ha
  Plant response rating, Rape: 4
rape; PREEMERGENCE, Rate 200 g/ha
  Plant response rating (0 to 10 scale), Rape: 10
rape; Rate 200 g/ha, POSTEMERGENCE
  Plant response rating, Rape: 10
Wild buckwheat; POSTEMERGENCE, Rate 50 g/ha
  Plant response rating, Wild buckwheat: 10
Wild buckwheat; PREEMERGENCE, Rate 50 g/ha
  Plant response rating, Wild buckwheat: 3
Wild buckwheat; PREEMERGENCE, Rate 200 g/ha
  Plant response rating (0 to 10 scale), Wild buckwheat: 3
Wild buckwheat; Rate 200 g/ha, POSTEMERGENCE
  Plant response rating, Wild buckwheat: 10
Sugar beet; POSTEMERGENCE, Rate 50 g/ha
  Plant response rating, Sugar beet: 10
Sugar beet; PREEMERGENCE, Rate 50 g/ha
  Plant response rating, Sugar beet: 8
Sugar beet; PREEMERGENCE, Rate 200 g/ha
  Plant response rating (0 to 10 scale), Sugar beet: 9
Sugar beet; Rate 200 g/ha, POSTEMERGENCE
  Plant response rating, Sugar beet: 10
corn; POSTEMERGENCE, Rate 50 g/ha
  Plant response rating, Corn: 4
corn; PREEMERGENCE, Rate 50 g/ha
  Plant response rating, Corn: 0
corn; PREEMERGENCE, Rate 200 g/ha
  Plant response rating (0 to 10 scale), Corn: 0
corn; Rate 200 g/ha, POSTEMERGENCE
  Plant response rating, Corn: 5
Purple nutsedge; POSTEMERGENCE, Rate 50 g/ha
  Plant response rating, Nutsedge: 2
Purple nutsedge; PREEMERGENCE, Rate 50 g/ha
  Plant response rating, Nutsedge: 0
Purple nutsedge; PREEMERGENCE, Rate 200 g/ha
  Plant response rating (0 to 10 scale), Nutsedge: 0
Purple nutsedge; Rate 200 g/ha, POSTEMERGENCE
  Plant response rating, Nutsedge: 4
Giant foxtail; POSTEMERGENCE, Rate 50 g/ha
  Plant response rating, Giant foxtail: 4
Giant foxtail; PREEMERGENCE, Rate 50 g/ha
  Plant response rating, Giant foxtail: 0
Giant foxtail; PREEMERGENCE, Rate 200 g/ha
  Plant response rating (0 to 10 scale), Giant foxtail: 2
Giant foxtail; Rate 200 g/ha, POSTEMERGENCE
  Plant response rating, Giant foxtail: 7
